{"source": "patent US20240239784A1", "about": "“INDOLE COMPOUNDS AND METHODS OF USE” (GENZYME CORPORATION, priority 2021, published 2024)", "data": [{"system": "NBD1", "experiment": "Aggregation analysis of NBD1 thermal stability by differential static light scattering (DSLS)", "format": "binding, Human", "settings": "compound at 100 μM; ΔTagg versus DMSO control", "experimental": "Purified recombinant NBD1 was produced using previously described methods (A. Schmidt, J. L. Mendoza, P. J. Thomas (2011) Biochemical and Biophysical Approaches to Probe CFTR Structure (365-376) M. D. Amaral, K. Kunzelmann (eds.), Cysic Fibrosis, Methods in Molecular Biology 741, Springer Science+Business Media). The effect of test compounds on thermal stability of NBD1 was evaluated by differential static light scattering (DSLS) using the Harbinger Stargazer-384 instrument (Epiphyte Three, Toronto, Canada). Test compounds were dissolved and diluted to desired concentrations in 100% DMSO. The compounds or DMSO controls (100 nL) were stamped into wells of a […] low volume optical plate (Corning Inc., Corning, NY) using the Echo 555 acoustic liquid handler (Labcyte Inc., San Jose, CA).\nNBD1 protein was diluted to 0.2 mg/ml in S200 buffer (50 mM Tris-HCl, 150 mM NaCl, 5 mM MgCl2, 2 mM ATP, 2 mM DTT, pH7.6) containing 1% glycerol. 10 uL of protein solution was aliquoted into the 384-well plate harboring the test compounds and 10 uL mineral oil was overlayed onto the protein solution, using the epMotion robotic liquid handler (Eppendorf North America, Hauppauge, NY). After placing into the Stargazer instrument, the plate was heated at 1° C. per minute to 70° C. Images were captured from 25° C. to 70° C. every 0.5° C. At the end of the experiment run, instrument software integrated image files and analyzed data automatically. A […] regression curve was generated for each well, representing the increase in light scattering over time. A temperature of aggregation (Tagg) was calculated based on the inflection point of the curve. To better compare data across experiments the average Tagg for DMSO control wells was calculated and subtracted from values for wells containing compounds to obtain a “ΔTagg” value. These ΔTagg values reflect stabilizing efficacy of the compounds.", "values": [{"molecule": "[O-][S+](c1ccccc1)c1cnc(-c2cccc(Oc3ccc4[nH]ccc4c3)c2)[nH]1", "note": "(centres unmarked) [Example 31, 5-(3-(5-(Phenylsulfinyl)-1H-imidazol-2-yl)phenoxy)-1H-indole]", "DSLS NBD1/3D Human Stability delta-T (° C.) @ 100 (μM)": "B (4-8° C.)"}, {"molecule": "CC(=O)NCc1c(Oc2cccc(-c3nnc(Cc4ccccc4)[nH]3)c2)ccc2[nH]ccc12", "note": "[Example 50, N-((5-(3-(5-Benzyl-4H-1,2,4-triazol-3-yl)phenoxy)-1H-indol-4-yl)methyl)acetamide]", "DSLS NBD1/3D Human Stability delta-T (° C.) @ 100 (μM)": "B (4-8° C.)"}, {"molecule": "C[S+]([O-])c1c(Oc2cccc(-c3ncc(C(O)c4ccccc4)[nH]3)c2)ccc2[nH]ccc12", "note": "(centres unmarked) [Example 55, (2-(3-((4-(Methylsulfinyl)-1H-indol-5-yl)oxy)phenyl)-1H-imidazol-5-yl)(phenyl)methanol]", "DSLS NBD1/3D Human Stability delta-T (° C.) @ 100 (μM)": "B (4-8° C.)"}, {"molecule": "OCc1c(Oc2cccc(-c3nc(Cc4ccccc4)cs3)c2)ccc2[nH]ccc12", "note": "[Example 48, (5-(3-(4-Benzylthiazol-2-yl)phenoxy)-1H-indol-4-yl)methanol]", "DSLS NBD1/3D Human Stability delta-T (° C.) @ 100 (μM)": "C (≤4° C.)"}, {"molecule": "CS(=O)(=O)NC(=O)CCc1c(Oc2cccc(-c3nnc(Cc4ccccc4)[nH]3)c2)ccc2[nH]ccc12", "note": "[Example 59, 3-(5-(3-(5-Benzyl-4H-1,2,4-triazol-3-yl)phenoxy)-1H-indol-4-yl)-N-(methylsulfonyl)propanamide]", "DSLS NBD1/3D Human Stability delta-T (° C.) @ 100 (μM)": "B (4-8° C.)"}, {"molecule": "O=C(O)c1c(Oc2cccc(-c3nnc(Cc4ccccc4)[nH]3)c2)ccc2[nH]ccc12", "note": "[Example 19, 5-(3-(5-Benzyl-4H-1,2,4-triazol-3-yl)phenoxy)-1H-indole-4-carboxylic acid]", "DSLS NBD1/3D Human Stability delta-T (° C.) @ 100 (μM)": "B (4-8° C.)"}, {"molecule": "CC(O)(c1ccccc1)c1cnc(-c2cccc([S+]([O-])c3ccc4[nH]ccc4c3)c2)[nH]1", "note": "(centres unmarked) [Example 40, 1-(2-(3-((1H-Indol-5-yl)sulfinyl)phenyl)-1H-imidazol-5-yl)-1-phenylethan-1-ol]", "DSLS NBD1/3D Human Stability delta-T (° C.) @ 100 (μM)": "C (≤4° C.)"}, {"molecule": "NC(c1ccccc1)c1nnc(-c2cccc(Oc3ccc4[nH]ccc4n3)c2)[nH]1", "note": "(centres unmarked) [Example 17, (5-(3-((1H-Pyrrolo[3,2-b]pyridin-5-yl)oxy)phenyl)-4H-1,2,4-triazol-3-yl)(phenyl)methanamine]", "DSLS NBD1/3D Human Stability delta-T (° C.) @ 100 (μM)": "B (4-8° C.)"}, {"molecule": "CC(C)(c1ccccc1)c1cnc(-c2cc(Oc3c(F)cc4[nH]ccc4c3CCC(=O)O)ccc2F)[nH]1", "note": "[Example 10, 3-(6-Fluoro-5-(4-fluoro-3-(5-(2-phenylpropan-2-yl)-1H-imidazol-2-yl)phenoxy)-1H-indol-4-yl)propanoic acid]", "DSLS NBD1/3D Human Stability delta-T (° C.) @ 100 (μM)": "A (T ≥8° C.)"}, {"molecule": "CS(=O)(=O)c1c(Oc2cccc(-c3ncc(C(N)c4ccccc4)[nH]3)c2)c(F)cc2[nH]ccc12", "note": "(centres unmarked) [Example 15, (2-(3-((6-Fluoro-4-(methylsulfonyl)-1H-indol-5-yl)oxy)phenyl)-1H-imidazol-5-yl)(phenyl)methanamine]", "DSLS NBD1/3D Human Stability delta-T (° C.) @ 100 (μM)": "A (T ≥8° C.)"}, {"molecule": "CC(O)(c1ccccc1)c1cnc(-c2cccc(Oc3ccc4[nH]ccc4c3S(C)(=O)=O)c2)[nH]1", "note": "(single isomer, unassigned) [Example 63A, 1-(2-(3-((4-(methylsulfonyl)-1H-indol-5-yl)oxy)phenyl)-1H-imidazol-5-yl)-1-phenylethan-1-ol]", "DSLS NBD1/3D Human Stability delta-T (° C.) @ 100 (μM)": "A (T ≥8° C.)"}, {"molecule": "CN1C(=O)SC(Cc2c(Oc3ccc(F)c(-c4nc(C(C)(O)c5ccccc5)c[nH]4)c3)c(F)cc3[nH]ccc23)C1=O", "note": "(centres unmarked) [Example 70, 5-((6-fluoro-5-(4-fluoro-3-(4-(1-hydroxy-1-phenylethyl)-1H-imidazol-2-yl)phenoxy)-1H-indol-4-yl)methyl)-3-methylthiazolidine-2,4-dione]", "DSLS NBD1/3D Human Stability delta-T (° C.) @ 100 (μM)": "B (4-8° C.)"}, {"molecule": "CC(O)c1c(Oc2cccc(-c3nc(C(C)(O)c4ccccc4)c[nH]3)c2)c(F)cc2[nH]ccc12", "note": "(centres unmarked) [Example 66, 1-(2-(3-((6-Fluoro-4-(1-hydroxyethyl)-1H-indol-5-yl)oxy)phenyl)-1H-imidazol-4-yl)-1-phenylethan-1-ol]", "DSLS NBD1/3D Human Stability delta-T (° C.) @ 100 (μM)": "A (T ≥8° C.)"}, {"molecule": "c1ccc(Cc2nnc(-c3cncc(Oc4ccc5[nH]ccc5c4)c3)[nH]2)cc1", "note": "[Example 29, 5-((5-(5-Benzyl-4H-1,2,4-triazol-3-yl)pyridin-3-yl)oxy)-1H-indole]", "DSLS NBD1/3D Human Stability delta-T (° C.) @ 100 (μM)": "C (≤4° C.)"}, {"molecule": "CNC(=O)CNC(=O)c1c(Oc2cccc(-c3ncc(C(O)c4ccccc4)[nH]3)c2)ccc2[nH]ncc12", "note": "(centres unmarked) [Example 28, 5-(3-(5-(Hydroxy(phenyl)methyl)-1H-imidazol-2-yl)phenoxy)-N-(2-(methylamino)-2-oxoethyl)-1H-indazole-4-carboxamide]", "DSLS NBD1/3D Human Stability delta-T (° C.) @ 100 (μM)": "B (4-8° C.)"}, {"molecule": "CC(O)(c1ccccc1)c1cnc(-c2cccc(Oc3c(F)cc4[nH]ccc4c3S(C)(=O)=O)c2)[nH]1", "note": "(centres unmarked) [Example 5, 1-(2-(3-((6-Fluoro-4-(methylsulfonyl)-1H-indol-5-yl)oxy)phenyl)-1H-imidazol-5-yl)-1-phenylethan-1-ol]", "DSLS NBD1/3D Human Stability delta-T (° C.) @ 100 (μM)": "A (T ≥8° C.)"}, {"molecule": "O=C(O)c1c(Oc2cccc(-c3ncc(C(O)c4ccccc4)[nH]3)c2)ccc2[nH]ncc12", "note": "(centres unmarked) [Example 27, 5-(3-(5-(Hydroxy(phenyl)methyl)-1H-imidazol-2-yl)phenoxy)-1H-indazole-4-carboxylic acid]", "DSLS NBD1/3D Human Stability delta-T (° C.) @ 100 (μM)": "C (≤4° C.)"}, {"molecule": "CC(O)(c1ccccc1)c1cnc(-c2cccc(Oc3cc(F)c4[nH]ccc4c3)c2)[nH]1", "note": "(centres unmarked) [Example 69, 1-(2-(3-((7-Fluoro-1H-indol-5-yl)oxy)phenyl)-1H-imidazol-5-yl)-1-phenylethan-1-ol]", "DSLS NBD1/3D Human Stability delta-T (° C.) @ 100 (μM)": "B (4-8° C.)"}, {"molecule": "CC(O)(c1ccccc1)c1c[nH]c(-c2cc(Oc3c(F)cc4[nH]ccc4c3CC(F)F)ccc2F)n1", "note": "(centres unmarked) [Example 25, 1-(2-(5-((4-(2,2-Difluoroethyl)-6-fluoro-1H-indol-5-yl)oxy)-2-fluorophenyl)-1H-imidazol-4-yl)-1-phenylethan-1-ol]", "DSLS NBD1/3D Human Stability delta-T (° C.) @ 100 (μM)": "B (4-8° C.)"}, {"molecule": "CN(C)CCNC(c1ccccc1)c1c[nH]c(-c2cccc(Oc3ccc4[nH]ccc4n3)c2)n1", "note": "(centres unmarked) [Example 54, N1-((2-(3-((1H-pyrrolo[3,2-b]pyridin-5-yl)oxy)phenyl)-1H-imidazol-5-yl)(phenyl)methyl)-N2,N2-dimethylethane-1,2-diamine]", "DSLS NBD1/3D Human Stability delta-T (° C.) @ 100 (μM)": "B (4-8° C.)"}, {"molecule": "CC(O)(c1ccccc1)c1cnc(-c2cccc(Sc3ccc4[nH]ccc4c3)c2)[nH]1", "note": "(centres unmarked) [Example 39, 1-(2-(3-((1H-Indol-5-yl)thio)phenyl)-1H-imidazol-5-yl)-1-phenylethan-1-ol]", "DSLS NBD1/3D Human Stability delta-T (° C.) @ 100 (μM)": "C (≤4° C.)"}, {"molecule": "NC(=O)CC(c1cccc(-c2nnc(Cc3ccccc3)[nH]2)c1)c1ccc2[nH]ccc2c1", "note": "(centres unmarked) [Example 38, 3-(3-(5-Benzyl-4H-1,2,4-triazol-3-yl)phenyl)-3-(1H-indol-5-yl)propanamide]", "DSLS NBD1/3D Human Stability delta-T (° C.) @ 100 (μM)": "C (≤4° C.)"}, {"molecule": "OC(c1cccc(-c2nnc(Cc3ccccc3)[nH]2)c1)c1ccc2[nH]ccc2c1", "note": "(single isomer, unassigned) [Example 35A, (3-(5-Benzyl-4H-1,2,4-triazol-3-yl)phenyl)(1H-indol-5-yl)methanol]", "DSLS NBD1/3D Human Stability delta-T (° C.) @ 100 (μM)": "B (4-8° C.)"}]}]}
